Laboratory results as given in US10570184B2, “GLP-1/glucagon receptor co-agonists for medical use” (Novo Nordisk A/S, priority 2014, dated 2020).
Starred links: 1 amine or outer side, 2 acyl side, 3 side chain; linkers in the order of their positions; H or OH if unused. Non-standard residues stand in square brackets, D forms with d. Residues, ends and D or L forms follow the SMILES beside them. Groups on a side chain read outwards from the residue. *: point of attachment. C18 diacid = O=C(O)CCCCCCCCCCCCCCCCC(=O)*; γGlu = O=C(O)[C@H](CCC(=O)[*:2])N[*:1]; Ac4c = NC1(C(=O)O)CCC1; AEEA = NCCOCCOCC(=O)O; Aib = CC(C)(N)C(=O)O

target: T1, human GLP-1 receptor (Homo sapiens, UniProt P43220); assay: Assay (II)(a) GLP-1 receptor binding, 125I-GLP-1 displacement SPA on BHK membranes; conditions: without presence of serum albumin; read-out: GLP-1R IC50 (nM) [Assay (II)(a)]
T1 construct: expressed in transfected cells; host or cells: membranes of BHK cells (parent BHKTS13), clone FCW467-12A
T1 sequence (P43220 24-463): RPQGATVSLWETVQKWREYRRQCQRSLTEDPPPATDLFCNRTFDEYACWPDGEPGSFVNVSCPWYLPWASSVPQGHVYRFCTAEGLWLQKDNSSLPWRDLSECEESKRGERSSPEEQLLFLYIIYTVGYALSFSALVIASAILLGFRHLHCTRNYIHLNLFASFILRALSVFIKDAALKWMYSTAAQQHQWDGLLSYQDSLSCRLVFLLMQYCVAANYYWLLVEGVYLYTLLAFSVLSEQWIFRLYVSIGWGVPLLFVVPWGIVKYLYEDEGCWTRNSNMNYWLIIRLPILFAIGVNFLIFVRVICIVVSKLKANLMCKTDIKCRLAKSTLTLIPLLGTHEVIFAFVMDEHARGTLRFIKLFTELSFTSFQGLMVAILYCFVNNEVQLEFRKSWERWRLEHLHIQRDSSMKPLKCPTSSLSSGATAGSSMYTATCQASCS
Procedure, shortened: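 Membranes from BHK cells (clone FCW467-12A) stably expressing human GLP-1R were incubated with serially diluted compounds (8×10EE-13 to 8×10EE-7 M before addition) and [125I]-GLP-1-(7-36)NH2 with WGA SPA beads, 2 h at 30° C, pH 7.4. IC50 taken from displacement by non-linear regression. Run at ≤0.001% or 2.0% final serum albumin.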

IC50 | Structure (SMILES)
0.3 nM | CC[C@H](C)[C@H](NC(=O)[C@H](CC(C)C)NC(=O)[C@H](Cc1c[nH]c2ccccc12)NC(=O)[C@H](C)NC(=O)[C@@H](NC(=O)[C@H](Cc1ccccc1)NC(=O)[C@H](CC(=O)O)NC(=O)[C@H](CCCNC(=N)N)NC(=O)[C@H](C)NC(=O)[C@H](CCCNC(=N)N)NC(=O)[C@H](CCCNC(=N)N)NC(=O)[C@H](C)NC(=O)[C@H](CC(=O)O)NC(=O)[C@H](CC(C)C)NC(=O)[C@H](Cc1ccc(O)cc1)NC(=O)[C@H](CCCCN)NC(=O)[C@H](CO)NC(=O)[C@H](Cc1ccc(O)cc1)NC(=O)[C@H](CC(=O)O)NC(=O)[C@H](CO)NC(=O)[C@@H](NC(=O)[C@H](Cc1ccccc1)NC(=O)[C@@H](NC(=O)CNC(=O)[C@H](CCC(N)=O)NC(=O)C(C)(C)NC(=O)[C@@H](N)Cc1c[nH]cn1)[C@@H](C)O)[C@@H](C)O)C(C)C)C(=O)N[C@@H](CCCCNC(=O)CC[C@H](NC(=O)CC[C@H](NC(=O)COCCOCCNC(=O)COCCOCCNC(=O)CC[C@H](NC(=O)CCCCCCCCCCCCCCCCC(=O)O)C(=O)O)C(=O)O)C(=O)O)C(=O)N[C@H](C(N)=O)[C@@H](C)O [Chem. 32, N^ε28-[(4S)-4-carboxy-4-[[(4S)-4-carboxy-4-[[2-[2-[2-[[2-[2-[2-[[(4S)-4-carboxy-4-(17-carboxyheptadecanoylamino)butanoyl]amino]ethoxy]ethoxy]acetyl]amino]ethoxy]ethoxy]acetyl]amino]butanoyl]amino]butanoyl]-[Aib2,Ala16,Arg20,Ala24,Ile27,Lys28]-Glucagon amide] (H-H[Aib]QGTFTSDYSKYLDARRARDFVAWLIK([γGlu-γGlu-AEEA-AEEA-γGlu-C18 diacid])T-NH2)
2.2 nM | CC[C@H](C)[C@H](NC(=O)[C@H](CC(C)C)NC(=O)[C@H](Cc1c[nH]c2ccccc12)NC(=O)[C@H](C)NC(=O)[C@@H](NC(=O)[C@H](Cc1ccccc1)NC(=O)[C@H](CC(=O)O)NC(=O)[C@H](CCC(N)=O)NC(=O)[C@H](C)NC(=O)[C@H](CCCNC(=N)N)NC(=O)[C@H](CCCNC(=N)N)NC(=O)[C@H](CO)NC(=O)[C@H](CCC(=O)O)NC(=O)[C@H](CC(C)C)NC(=O)[C@H](Cc1ccc(O)cc1)NC(=O)[C@H](CCCCN)NC(=O)[C@H](CO)NC(=O)[C@H](Cc1ccc(O)cc1)NC(=O)[C@H](CC(=O)O)NC(=O)[C@H](CO)NC(=O)[C@@H](NC(=O)[C@H](Cc1ccccc1)NC(=O)[C@@H](NC(=O)CNC(=O)[C@H](CCC(N)=O)NC(=O)C(C)(C)NC(=O)[C@@H](N)Cc1c[nH]cn1)[C@@H](C)O)[C@@H](C)O)C(C)C)C(=O)N[C@@H](CCCCNC(=O)CC[C@H](NC(=O)CC[C@H](NC(=O)COCCOCCNC(=O)COCCOCCNC(=O)CC[C@H](NC(=O)CCCCCCCCCCCCCCCCC(=O)O)C(=O)O)C(=O)O)C(=O)O)C(=O)N[C@H](C(N)=O)[C@@H](C)O [Chem. 34, N^ε28-[(4S)-4-carboxy-4-[[(4S)-4-carboxy-4-[[2-[2-[2-[[2-[2-[2-[[(4S)-4-carboxy-4-(17-carboxyheptadecanoylamino)butanoyl]amino]ethoxy]ethoxy]acetyl]amino]ethoxy]ethoxy]acetyl]amino]butanoyl]amino]butanoyl]-[Aib2,Glu15,Ala24,Ile27,Lys28]-Glucagon amide] (H-H[Aib]QGTFTSDYSKYLESRRAQDFVAWLIK([γGlu-γGlu-AEEA-AEEA-γGlu-C18 diacid])T-NH2)
1.5 nM | CC[C@H](C)[C@H](NC(=O)[C@H](CC(C)C)NC(=O)[C@H](Cc1c[nH]c2ccccc12)NC(=O)[C@H](CCC(N)=O)NC(=O)[C@@H](NC(=O)[C@H](Cc1ccccc1)NC(=O)[C@H](CC(=O)O)NC(=O)[C@H](CCCNC(=N)N)NC(=O)[C@H](C)NC(=O)[C@H](CCCNC(=N)N)NC(=O)[C@H](CCCNC(=N)N)NC(=O)[C@H](CO)NC(=O)[C@H](CCC(=O)O)NC(=O)[C@H](CC(C)C)NC(=O)[C@H](Cc1ccc(O)cc1)NC(=O)[C@H](CCCNC(=N)N)NC(=O)[C@H](CO)NC(=O)[C@H](Cc1ccc(O)cc1)NC(=O)[C@H](CC(=O)O)NC(=O)[C@H](CO)NC(=O)[C@@H](NC(=O)[C@H](Cc1ccccc1)NC(=O)[C@@H](NC(=O)CNC(=O)[C@H](CCC(N)=O)NC(=O)C1(NC(=O)[C@@H](N)Cc2c[nH]cn2)CCC1)[C@@H](C)O)[C@@H](C)O)C(C)C)C(=O)N[C@@H](CCCCNC(=O)CC[C@H](NC(=O)COCCOCCNC(=O)CC[C@H](NC(=O)COCCOCCNC(=O)CC[C@H](NC(=O)COCCOCCNC(=O)CC[C@H](NC(=O)CC[C@H](NC(=O)CCCCCCCCCCCCCCCCC(=O)O)C(=O)O)C(=O)O)C(=O)O)C(=O)O)C(=O)O)C(=O)N[C@H](C(N)=O)[C@@H](C)O [Chem. 36, N^ε28-[(4S)-4-carboxy-4-[[2-[2-[2-[[(4S)-4-carboxy-4-[[2-[2-[2-[[(4S)-4-carboxy-4-[[2-[2-[2-[[(4S)-4-carboxy-4-[[(4S)-4-carboxy-4-(17-carboxyheptadecanoylamino)butanoyl]amino]butanoyl]amino]ethoxy]ethoxy]acetyl]amino]butanoyl]amino]ethoxy]ethoxy]acetyl]amino]butanoyl]amino]ethoxy]ethoxy]acetyl]amino]butanoyl]-[Acb2,Arg12,Glu15,Arg20,Ile27,Lys28]-Glucagon amide] (H-H[Ac4c]QGTFTSDYSRYLESRRARDFVQWLIK([γGlu-AEEA-γGlu-AEEA-γGlu-AEEA-γGlu-γGlu-C18 diacid])T-NH2; N-terminus assumed)
1.5 nM | CC[C@H](C)[C@H](NC(=O)[C@H](CC(C)C)NC(=O)[C@H](Cc1c[nH]c2ccccc12)NC(=O)[C@H](CCC(N)=O)NC(=O)[C@@H](NC(=O)[C@H](Cc1ccccc1)NC(=O)[C@H](CC(=O)O)NC(=O)[C@H](CCCNC(=N)N)NC(=O)[C@H](C)NC(=O)[C@H](CCCNC(=N)N)NC(=O)[C@H](CCCNC(=N)N)NC(=O)[C@H](CO)NC(=O)[C@H](CCC(=O)O)NC(=O)[C@H](CC(C)C)NC(=O)[C@H](Cc1ccc(O)cc1)NC(=O)[C@H](CCCNC(=N)N)NC(=O)[C@H](CO)NC(=O)[C@H](Cc1ccc(O)cc1)NC(=O)[C@H](CC(=O)O)NC(=O)[C@H](CO)NC(=O)[C@@H](NC(=O)[C@H](Cc1ccccc1)NC(=O)[C@@H](NC(=O)CNC(=O)[C@H](CCC(N)=O)NC(=O)C(C)(C)NC(=O)[C@@H](N)Cc1c[nH]cn1)[C@@H](C)O)[C@@H](C)O)C(C)C)C(=O)N[C@@H](CCCCNC(=O)CC[C@H](NC(=O)COCCOCCNC(=O)CC[C@H](NC(=O)COCCOCCNC(=O)CC[C@H](NC(=O)COCCOCCNC(=O)CC[C@H](NC(=O)CC[C@H](NC(=O)CCCCCCCCCCCCCCCCC(=O)O)C(=O)O)C(=O)O)C(=O)O)C(=O)O)C(=O)O)C(=O)N[C@H](C(N)=O)[C@@H](C)O [Chem. 37, N^28-[(4S)-4-carboxy-4-[[2-[2-[2-[[(4S)-4-carboxy-4-[[2-[2-[2-[[(4S)-4-carboxy-4-[[2-[2-[2-[[(4S)-4-carboxy-4-[[(4S)-4-carboxy-4-(17-carboxyheptadecanoylamino)butanoyl]amino]butanoyl]amino]ethoxy]ethoxy]acetyl]amino]butanoyl]amino]ethoxy]ethoxy]acetyl]amino]butanoyl]amino]ethoxy]ethoxy]acetyl]amino]butanoyl]-[Aib2,Arg12,Glu15,Arg20,Ile27,Lys28]-Glucagon amide] (H-H[Aib]QGTFTSDYSRYLESRRARDFVQWLIK([γGlu-AEEA-γGlu-AEEA-γGlu-AEEA-γGlu-γGlu-C18 diacid])T-NH2; N-terminus assumed)
